Broadly, the IC50 is the concentration that gives 50% inhibition.

Among the data in patent US12226425B2, “Inhibitors of ARG1 and/or ARG2” (Arcus Biosciences, Inc., priority 2018, dated 2025) are IC50 values, retold here.

In the test the target is T1, recombinant human ARG1 (Homo sapiens, UniProt P05089).
T1 sequence (P05089 1-322): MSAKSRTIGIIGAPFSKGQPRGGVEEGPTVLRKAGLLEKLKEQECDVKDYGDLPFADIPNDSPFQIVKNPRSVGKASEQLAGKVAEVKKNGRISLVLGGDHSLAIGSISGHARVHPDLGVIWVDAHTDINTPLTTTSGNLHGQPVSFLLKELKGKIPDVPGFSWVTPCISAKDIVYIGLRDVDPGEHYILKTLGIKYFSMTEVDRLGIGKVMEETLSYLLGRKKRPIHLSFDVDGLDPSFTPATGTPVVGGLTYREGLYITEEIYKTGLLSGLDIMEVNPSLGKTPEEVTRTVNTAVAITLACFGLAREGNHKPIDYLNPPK
The experiment in a line: Arginase coupled enzymatic assay using recombinant human ARG1. The test is classed as biochemical. Particulars: 2 nM ARG1, 0.8 mM L-Arginine, 10 mM sodium phosphate pH 7.4, 0.1 mM MnCl2, 37° C., absorption at 570 nm; read-out: hARG1 potency (IC50). As for the experimental part: Purified recombinant human ARG1 and ARG2 were prepared in 50 mM Bicine, pH 8.5, 100 μM MnCl2, 20% glycerol and 1mM DTT at a final stock concentration of 14.4 μM and 7.56 μM respectively. 2.5 nM of either ARG1 or ARG2 were incubated with varying concentrations of compounds in 10 mM sodium phosphate, pH 7.4, 0.1 mM MnCl2 and 2.5% DMSO in a total volume of 40 μl in a 384-well microplate (Corning™ #3640) at 37° C. for 1 h. The arginase enzymatic reaction was initiated by addition of 10 μl of 4 mM L-Arginine pre-incubated in 10 mM sodium phosphate, pH 7.4, and 0.1 mM MnCl2 at 37° C. into the enzyme and compound mixture, giving the final reaction conditions: 2 nM of ARG1 or ARG2 and 0.8 mM of L-Arginine in 10 mM sodium phosphate, pH 7.4, 0.1 mM MnCl2 and 2% DMSO with varying concentrations of compounds. Following 2 h incubation at 37° C., the arginase enzymatic reaction was stopped by transfer of 10 μl of reaction into 10 μl of detection mix (204 μM Amino-2-Borono-6-Hexanoic Acid, 0.25 μl Arginase Enzyme mix, 0.25 μl Arginase Developer, 0.25 μl Arginase Converter Enzyme in Arginase Assay Buffer from Arginase Activity Colorimetric Assay Kit, BioVision Inc. #K755-100) in a transparent 384-well microplate (Greiner #781801). The plate was immediately put into a plate reader (Synergy™ Neo2 Multi-Mode Microplate Reader) to monitor absorption at 570 nm at 37° C. Absorption values at 12˜20 min were used to calculate compound potency. The value of the DMSO blank (MIN inhibition=100% activity) was used as a negative control. The positive control was established by adding 8 μl of enzyme and DMSO mix into 10 μl of detection mix followed by addition of 2 μl of L-Arginine (MAX inhibition=0% activity). To calculate the percent activity, Equation 1 was used. Abs570nm is the value at a given compound concentration:
A counter-screen was performed to identify any inhibition of the coupling enzymes by the test compounds. 10 μl of 0.26 mM of urea with varying concentrations of compounds in 10 mM sodium phosphate, pH 7.4, 0.1 mM MnCl2 and 2% DMSO were added into 10 μl of detection mix in place of the arginase enzymatic reaction mix. Absorption was monitored at 570 nm as described above. The values of a no substrate blank (without urea; MAX inhibition=0% activity) and a DMSO blank (MIN inhibition=100% activity) were used as positive and negative controls respectively. […] Inactivity in the counter-screen was used to confirm that results accurately reflected IC50 values for ARG1 and ARG2.
In the case of `N[C@@]1(C(=O)O)c2cccnc2C[C@@H]1CCCB(O)O`, the IC50 was more than 1000 nM.

Take `N[C@@]1(C(=O)O)c2cccc(Br)c2C[C@@H]1CCCB(O)O`: the IC50 was more than 1000 nM.

Regarding `N#Cc1cccc2c1C[C@H](CCCB(O)O)[C@]2(N)C(=O)O`, the IC50 was more than 1000 nM.

With `NCCc1ccc2c(c1)[C@@](N)(C(=O)O)[C@@H](CCCB(O)O)C2`, the IC50 is less than 100 nM.

With `NCCc1ccc2c(c1)C[C@H](CCCB(O)O)[C@]2(N)C(=O)O`, the IC50 lay in the range of 100 to 1000 nM.

Take `CN[C@@]1(C(=O)O)c2cc(OC)c(CN)cc2C[C@@H]1CCCB(O)O`: the IC50 is less than 100 nM.

Take `CN[C@@]1(C(=O)O)c2cc(Cl)c(CN)cc2C[C@@H]1CCCB(O)O`: the IC50 is less than 100 nM.

For `CC(N)c1ccc2c(c1)[C@@](N)(C(=O)O)[C@@H](CCCB(O)O)C2` (stereo partly drawn), the IC50 was less than 100 nM.

Take `NCCc1cc2c(cc1Cl)C[C@H](CCCB(O)O)[C@]2(N)C(=O)O`: the IC50 is less than 100 nM.

With `CCN[C@@]1(C(=O)O)c2cc(OC)c(CN)cc2C[C@@H]1CCCB(O)O`, the IC50 fell in the range of 100 to 1000 nM.

For the molecule `CN[C@@]1(C(=O)O)c2c(F)cc(CN)cc2C[C@@H]1CCCB(O)O`, the IC50 lay within 100 to 1000 nM.

On to `NC1CN(c2ccc3c(c2)C[C@H](CCCB(O)O)[C@]3(N)C(=O)O)C1`, for which the IC50 is more than 1000 nM.

Take `CN[C@@]1(C(=O)O)c2cc(CN)c(Cl)cc2C[C@@H]1CCCB(O)O`: the IC50 was less than 100 nM.

On to `CN[C@@]1(C(=O)O)c2cc(CN)c(F)cc2C[C@@H]1CCCB(O)O`, for which the IC50 was less than 100 nM.

Consider `CN[C@@]1(C(=O)O)c2cc([C@@H](C)N)c(F)cc2C[C@@H]1CCCB(O)O`, for which the IC50 was less than 100 nM.

Take `CN[C@@]1(C(=O)O)c2cc([C@H](C)N)c(F)cc2C[C@@H]1CCCB(O)O`: the IC50 was less than 100 nM.

As to `CNCc1cc2c(cc1Cl)C[C@H](CCCB(O)O)[C@]2(NC)C(=O)O`, the IC50 is less than 100 nM.

For the molecule `CN[C@@]1(C(=O)O)c2cc([C@H](C)N)c(Cl)cc2C[C@@H]1CCCB(O)O`, the IC50 is less than 100 nM.

Take `CN[C@@]1(C(=O)O)c2cc(C(C)(C)N)c(F)cc2C[C@@H]1CCCB(O)O`: the IC50 was less than 100 nM.

On to `CN[C@@]1(C(=O)O)c2cc([C@@H](C)N)c(Cl)cc2C[C@@H]1CCCB(O)O`, for which the IC50 was less than 100 nM.

For the molecule `CN[C@@]1(C(=O)OC)c2cc(CN)c(Cl)cc2C[C@@H]1CCCB(O)O`, the IC50 was 100 to 1000 nM.

In the case of `CN[C@@]1(C(=O)O)c2cc([C@@H](C)N)ccc2C[C@@H]1CCCB(O)O`, the IC50 was less than 100 nM.

Take `CN[C@@]1(C(=O)O)c2cc(N)c(Cl)cc2C[C@@H]1CCCB(O)O`: the IC50 fell in the range of 100 to 1000 nM.

With `CN[C@@]1(C(=O)O)c2cc(C(C)(C)N)c(Cl)cc2C[C@@H]1CCCB(O)O`, the IC50 is less than 100 nM.

As for `CN[C@@]1(C(=O)O)c2cc(CO)c(Cl)cc2C[C@@H]1CCCB(O)O`, the IC50 lay in the range of 100 to 1000 nM.

Regarding `CN[C@@]1(C(=O)O)c2cc([C@@H](N)C(F)(F)F)ccc2C[C@@H]1CCCB(O)O`, the IC50 lay within 100 to 1000 nM.

As for `CN[C@@]1(C(=O)O)c2cc(-c3ccccn3)c(F)cc2C[C@@H]1CCCB(O)O`, the IC50 lay in the range of 100 to 1000 nM.
